Results as given in ChEMBL document CHEMBL4387773, “Identification of potent, selective and orally bioavailable phenyl ((R)-3-phenylpyrrolidin-3-yl)sulfone analogues as RORγt inverse agonists” (Bioorg Med Chem Lett, 2019).

Experiments:
[1] = Cmax in Balb/c mouse at 10 mg/kg, po; assay type: ADME, organism-based; set-up: dose 10 mg/kg, route oral; settings: in vivo
[2] = Half life in mouse liver microsomes; assay type: ADME, Microsome
[3] = molecular target: T1, Nuclear receptor subfamily 1 group I member 2 (Homo sapiens, UniProt O75469); assay: Transactivation of PXR (unknown origin) expressed in human HepG2 cells; assay type: cell-based
T1 sequence (O75469 whole entry): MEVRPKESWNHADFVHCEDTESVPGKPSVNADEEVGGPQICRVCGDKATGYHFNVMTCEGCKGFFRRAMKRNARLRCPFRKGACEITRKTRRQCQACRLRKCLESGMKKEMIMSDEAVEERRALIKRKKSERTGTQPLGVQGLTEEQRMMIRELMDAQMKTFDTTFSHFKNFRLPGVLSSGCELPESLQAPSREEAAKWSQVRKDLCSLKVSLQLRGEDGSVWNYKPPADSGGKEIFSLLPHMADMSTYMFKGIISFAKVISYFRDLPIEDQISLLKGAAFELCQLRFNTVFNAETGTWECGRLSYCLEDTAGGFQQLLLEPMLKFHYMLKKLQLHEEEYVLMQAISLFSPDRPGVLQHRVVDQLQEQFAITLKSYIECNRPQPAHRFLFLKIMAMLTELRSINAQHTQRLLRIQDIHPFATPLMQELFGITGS

[4] = molecular target: T2, Oxysterols receptor LXR-alpha (Homo sapiens, UniProt Q13133); assay: Transactivation of human GAL4-fused LXRalpha expressed in African green monkey CV1 cells; assay type: cell-based
T2 sequence (Q13133 whole entry): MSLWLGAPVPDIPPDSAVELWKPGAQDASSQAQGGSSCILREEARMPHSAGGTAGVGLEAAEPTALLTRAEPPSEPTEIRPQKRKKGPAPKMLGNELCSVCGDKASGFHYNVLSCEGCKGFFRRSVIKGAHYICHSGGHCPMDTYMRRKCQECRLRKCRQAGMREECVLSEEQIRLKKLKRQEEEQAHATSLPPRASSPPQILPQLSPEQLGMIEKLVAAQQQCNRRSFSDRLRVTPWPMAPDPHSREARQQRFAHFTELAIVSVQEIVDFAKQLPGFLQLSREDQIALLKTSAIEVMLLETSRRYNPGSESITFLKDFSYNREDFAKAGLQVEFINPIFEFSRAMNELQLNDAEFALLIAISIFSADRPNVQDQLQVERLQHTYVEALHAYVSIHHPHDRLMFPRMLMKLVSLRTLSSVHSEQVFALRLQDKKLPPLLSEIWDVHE

[5] = molecular target: T3, Cytochrome P450 1A2 (Homo sapiens, UniProt P05177); assay: Inhibition of CYP1A2 (unknown origin); assay type: ADME
T3 sequence (P05177 whole entry): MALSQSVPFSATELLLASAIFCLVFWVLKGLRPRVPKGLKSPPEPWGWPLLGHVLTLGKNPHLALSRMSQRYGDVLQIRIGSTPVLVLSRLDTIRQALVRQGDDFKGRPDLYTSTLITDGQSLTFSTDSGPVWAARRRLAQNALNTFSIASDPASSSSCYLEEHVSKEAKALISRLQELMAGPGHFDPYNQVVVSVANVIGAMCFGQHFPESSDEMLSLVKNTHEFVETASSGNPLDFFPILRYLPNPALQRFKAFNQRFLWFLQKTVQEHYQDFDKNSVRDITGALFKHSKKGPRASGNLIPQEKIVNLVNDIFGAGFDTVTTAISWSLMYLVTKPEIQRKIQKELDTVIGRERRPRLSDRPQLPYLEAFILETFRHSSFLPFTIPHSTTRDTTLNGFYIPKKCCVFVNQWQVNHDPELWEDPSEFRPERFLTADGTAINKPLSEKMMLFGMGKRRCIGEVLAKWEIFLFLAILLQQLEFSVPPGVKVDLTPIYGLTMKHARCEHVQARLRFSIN

[6] = Half life in human liver microsomes; assay type: ADME, Microsome
[7] = molecular target: T4, Oxysterols receptor LXR-beta (Homo sapiens, UniProt P55055); assay: Transactivation of human GAL4-fused LXRbeta expressed in African green monkey CV1 cells; assay type: cell-based
T4 sequence (P55055 whole entry): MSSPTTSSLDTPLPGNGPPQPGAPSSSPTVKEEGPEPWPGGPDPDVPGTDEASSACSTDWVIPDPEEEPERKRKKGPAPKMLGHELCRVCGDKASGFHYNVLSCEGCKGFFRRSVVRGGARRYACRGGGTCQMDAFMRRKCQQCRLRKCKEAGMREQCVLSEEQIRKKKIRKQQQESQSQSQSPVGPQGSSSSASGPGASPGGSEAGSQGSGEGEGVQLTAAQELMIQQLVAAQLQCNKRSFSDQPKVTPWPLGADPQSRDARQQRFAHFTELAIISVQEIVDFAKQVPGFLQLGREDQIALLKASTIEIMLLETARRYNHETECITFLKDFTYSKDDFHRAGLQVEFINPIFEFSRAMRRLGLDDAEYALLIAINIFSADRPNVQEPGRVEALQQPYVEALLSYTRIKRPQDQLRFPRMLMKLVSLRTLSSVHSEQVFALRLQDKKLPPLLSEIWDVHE

[8] = molecular target: Cytochrome P450 3A4 (Homo sapiens, UniProt P08684); assay: Inhibition of CYP3A4 (unknown origin); assay type: ADME
Cytochrome P450 3A4, sequence (P08684 whole entry): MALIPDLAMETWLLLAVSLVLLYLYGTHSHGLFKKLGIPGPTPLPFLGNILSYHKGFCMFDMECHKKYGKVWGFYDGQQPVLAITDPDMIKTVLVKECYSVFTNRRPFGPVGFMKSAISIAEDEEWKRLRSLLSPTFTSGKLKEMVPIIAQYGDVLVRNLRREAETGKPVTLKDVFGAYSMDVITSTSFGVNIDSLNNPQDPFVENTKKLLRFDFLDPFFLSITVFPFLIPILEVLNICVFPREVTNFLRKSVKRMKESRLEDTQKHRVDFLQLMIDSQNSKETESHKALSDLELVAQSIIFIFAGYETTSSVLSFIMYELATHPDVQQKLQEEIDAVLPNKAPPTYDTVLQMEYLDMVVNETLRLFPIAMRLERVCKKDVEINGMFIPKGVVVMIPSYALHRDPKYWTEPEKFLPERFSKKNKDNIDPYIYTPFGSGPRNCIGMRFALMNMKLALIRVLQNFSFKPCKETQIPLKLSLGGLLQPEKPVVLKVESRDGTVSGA

| SMILES | Cmax [1] | half-life [2] | EC50 [3] | EC50 [4] | IC50 [5] | half-life [6] | EC50 [7] | IC50 [8] |
| --- | --- | --- | --- | --- | --- | --- | --- | --- |
| O=C(O)C12CCC(C(=O)N3CC[C@](c4ccc(C(F)(C(F)(F)F)C(F)(F)F)cc4)(S(=O)(=O)c4ccc(F)cc4)C3)(CC1)CC2 | 6.7 µM | > 2 h | > 50 µM | > 7.5 µM | > 10 µM | > 2 h | > 7.5 µM | > 10 µM |
| CC[C@]1(C(=O)N2CC[C@](c3ccc(C(F)(C(F)(F)F)C(F)(F)F)cc3)(S(=O)(=O)c3ccc(F)cc3)C2)CC[C@H](C(=O)O)CC1 | 3.7 µM | > 2 h | > 50 µM | > 7.5 µM | > 10 µM | > 2 h | > 7.5 µM | > 10 µM |
